US20240374879A1, “METHODS AND COMPOSITIONS TO REDUCE CELLULAR DEPOSITION, AND HYDROCEPHALUS SHUNT FAILURE” (Wayne State University, priority 2021, published 2024)

Tests used:
[1] = target: T1, TLR-4 (Mus musculus, UniProt Q9QUK6); settings: 50 mg/kg; four hours post-treatment; cited from earlier work
T1 sequence (Q9QUK6 26-835): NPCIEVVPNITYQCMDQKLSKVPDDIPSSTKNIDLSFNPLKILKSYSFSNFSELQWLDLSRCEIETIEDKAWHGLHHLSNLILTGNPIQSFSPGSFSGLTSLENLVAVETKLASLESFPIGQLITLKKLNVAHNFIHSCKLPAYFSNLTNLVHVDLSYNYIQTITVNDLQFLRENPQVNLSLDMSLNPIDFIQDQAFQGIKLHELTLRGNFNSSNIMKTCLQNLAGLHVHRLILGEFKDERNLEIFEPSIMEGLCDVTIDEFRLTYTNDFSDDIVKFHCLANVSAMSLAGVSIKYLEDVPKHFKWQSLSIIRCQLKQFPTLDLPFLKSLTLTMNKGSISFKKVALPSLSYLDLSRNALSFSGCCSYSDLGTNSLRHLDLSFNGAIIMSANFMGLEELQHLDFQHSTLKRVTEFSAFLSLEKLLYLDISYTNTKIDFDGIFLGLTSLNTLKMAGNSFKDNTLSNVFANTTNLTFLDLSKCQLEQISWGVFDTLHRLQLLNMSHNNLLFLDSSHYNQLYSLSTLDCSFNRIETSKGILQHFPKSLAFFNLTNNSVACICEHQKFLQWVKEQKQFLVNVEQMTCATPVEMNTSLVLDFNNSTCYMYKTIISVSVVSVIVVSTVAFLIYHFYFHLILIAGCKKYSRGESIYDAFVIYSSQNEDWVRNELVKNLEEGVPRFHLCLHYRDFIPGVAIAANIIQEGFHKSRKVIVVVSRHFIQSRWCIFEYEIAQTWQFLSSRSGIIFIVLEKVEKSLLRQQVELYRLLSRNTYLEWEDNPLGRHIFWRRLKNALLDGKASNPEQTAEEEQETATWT

[2] = system: Human astrocyte cells; assay: Delivery Method: immunofluorescence (DAPI, GFAP) of astrocytes, GIT 27 attached to PDMS or in suspension; assay type: cell-based
Protocol: Delivery Method: Following the nanodrop experiment, it was determined that the minimum concentration necessary to attach GIT 27 to the surface of the PDMS was 1000 μg/mL to display any attachment and release from the catheter. […] Using this concentration for sufficient surface coating, human astrocyte cells were cultured onto PDMS discs coated with GIT 27. Samples were also tested by adding GIT 27 at various concentrations in suspension within the cell culture media. Attached GIT 27 samples were conducted at concentrations 1000 and 3000 μg/mL, and for the in suspension concentrations 5, 50, and 1000 μg/mL in astrocyte media were used.
Immunofluorescence was performed using glial fibrillary acidic protein (GFAP) and 4′,6-diamidino-2-phenylindole (DAPI) solution (ThermoFisher). GFAP primary and secondaries were diluted to a ratio of 1:1000 and 5:1000, respectfully, in 0.4% Triton-X in PBS (w/v). Samples were incubated for 24 hours in each solution. After rinsing the samples with PBS, the samples were incubated in a 1:1000 DAPI solution in 0.4% Triton X solution for 30 minutes. Samples were then imaged submerged in PBS using a confocal microscope at 20× magnification and analyzed using Imaris software.

[3] = Solubility of GIT 27; assay type: physicochemical
[4] = 1000 μg/mL GIT 27 in suspension, qualitative

In the case of `O=C(O)CC1CC(c2ccccc2)=NO1` (centres unmarked) [GIT 27, 4,5-Dihydro-3-phenyl-5-isoxazoleacetic acid], the edema [1] is given as “significantly reduced”, the “astrocyte cell bodies (GFAP) labeling compared to all other groups” value [2, 4] is given as “lowest amount” and the “immunofluorescent total cell count (DAPI) labeling compared to all other groups” value [2, 4] is given as “lowest amount”. For the same compound, the “GFAP levels compared to controls with no GIT 27 exposure” value ([2]; plasma etched samples with GIT 27 attached to the surface) was “increased levels” and the solubility [3] was “only soluble in DMSO”.
